Laboratory results reported in patent publication US10744117B2, “PPARG modulators for the treatment of osteoporosis” (The Scripps Research Institute, priority 2014, dated 2020).
“Also recorded” adds a separate entry of the source.

Experiments:
PPARG = experiment: Cell-based transactivation assay, 3xPPRE-luciferase reporter co-transfected with PPARG in COS-1 cells; details: PPRE-luciferase
lean C57BL/6 mice = experiment: Bone study in lean C57BL/6 mice on regular diet, 8 weeks; type: in vivo, mouse; details: supplemented RD
Procedure: In parallel, a group of sex- and age-matched control (n=5) was fed regular diet (RD) providing 12 kcal % from fat (2016 Teklad Global, Harlan Laboratories, Indianapolis, Ind.). […] The animal treatment and care protocols conformed to the NIH Guidelines and were performed under the University of Toledo Health Science Campus Institutional Animal Care and Utilization Committee protocol.
(§1) Fat and lean mass were evaluated at the beginning and at the end of experiment using a Minispec mq10 NMR analyzer (Bruker, Billerica, Mass.). Glucose disposal (glucose tolerance test, GTT) was measured after ip injection of 2 g/kg glucose to animals fasted for 4 hrs. Blood glucose was measured using the AlphaTRAK system appropriate for mice (Abbott Laboratories, North Chicago, Ill.). For indirect calorimetry, mice were evaluated in metabolic cages (CLAMS; Columbus Instruments, Columbus, Ohio) for 4 days with a free access to food and water. Mice were housed individually at room temperature (22C) under an alternating 12-h light/dark cycle. After one day adaptation, oxygen (VO2) consumption, carbon dioxide (VCO2) production, physical activity, and heat production were measured to determine energy expenditure. Respiratory exchange ratio was calculated as a ratio of the O2 consumption and the CO2 production. […]

[1] = test system: obese mice fed a high fat diet; experiment: Glucose tolerance test in mice on RD or HFD (FIG. 7); type: in vivo, mouse; details: mice fasted, bolus of glucose, plasma glucose over time
DIO C57BL/6 mice = experiment: Bone and marrow fat study in diet induced obesity (DIO) C57BL/6 mice on HFD, 4 wks; type: in vivo, mouse; details: 25 mg/kg/d
Procedure: The compound IA-48 (SR10171) acts as an antagonist to PPARy pro-adipocytic activity, and it has been further tested in vivo for its effect on bone. SR10171 was administered to hyperglycemic C57BL/6 mice, 12 wks old males, that were purchased from the Jackson Laboratories (Bar Harbor, Me.). DIO mice: Animals were fed ad libitum for 11 wks high fat diet (HFD) providing 45 kcal % from fat (D12451; Research Diets, New Brunswick, N.J.) to develop diet induced obesity (DIO).
In parallel, a group of sex- and age-matched control (n=5) was fed regular diet (RD) providing 12 kcal % from fat (2016 Teklad Global, Harlan Laboratories, Indianapolis, Ind.). […]
as §1, with “Mice were housed individually at room temperature (22C) under an alternating 12-h light/dark cycle.” left out, “expenditure.” for “expenditure. Respiratory exchange ratio was calculated as a ratio of the O2 consumption and the CO2 production.”

For CN(CCOc1ccc(CC2SC(=O)NC2=O)cc1)c1ccccn1 (centres unmarked) [Rosiglitazone, rosiglitazone], the “activation of the reporter” value (PPARG) was “about 5 fold”, the “loss of trabecular bone mass” value (lean C57BL/6 mice) was 30% and the “glucose tolerance / glucose disposal” value [1] was “insulin sensitization effects and improved glucose disposal”. The “decrease of trabecular bone mass” value (DIO C57BL/6 mice) was 70% and the “bone marrow fat content (osmium staining)” value (DIO C57BL/6 mice; trabecular region of tibia) was “significant fat accumulation in the bone marrow; also recorded: significantly increased fat content in the bone marrow”.
